Values of other authors, collected in patent US8529964B1, “Method and composition for suppression and control of citrus canker and other plant diseases” (priority 2010, dated 2013).

O.O.O=C([O-])c1ccccc1.O=C([O-])c1ccccc1.[Cu+2] [copper benzoate dehydrate]
water solubility (in words): slightly water soluble
